Consider nine molecules from patent US20250296929A1, “NOVEL HEPATOSELECTIVE POLYADENYLATING POLYMERASES INHIBITORS AND THEIR METHOD OF USE” (BARUCH S. BLUMBERG INSTITUTE, priority 2021, published 2025).

For data set [1] the following is noted: in words; cited from earlier work.
Another data set deals with T1, OATP1B1 (Homo sapiens, UniProt Q9Y6L6).
T1 construct: expressed in transfected cells; host or cells: HEK293
T1 sequence (Q9Y6L6 1-691): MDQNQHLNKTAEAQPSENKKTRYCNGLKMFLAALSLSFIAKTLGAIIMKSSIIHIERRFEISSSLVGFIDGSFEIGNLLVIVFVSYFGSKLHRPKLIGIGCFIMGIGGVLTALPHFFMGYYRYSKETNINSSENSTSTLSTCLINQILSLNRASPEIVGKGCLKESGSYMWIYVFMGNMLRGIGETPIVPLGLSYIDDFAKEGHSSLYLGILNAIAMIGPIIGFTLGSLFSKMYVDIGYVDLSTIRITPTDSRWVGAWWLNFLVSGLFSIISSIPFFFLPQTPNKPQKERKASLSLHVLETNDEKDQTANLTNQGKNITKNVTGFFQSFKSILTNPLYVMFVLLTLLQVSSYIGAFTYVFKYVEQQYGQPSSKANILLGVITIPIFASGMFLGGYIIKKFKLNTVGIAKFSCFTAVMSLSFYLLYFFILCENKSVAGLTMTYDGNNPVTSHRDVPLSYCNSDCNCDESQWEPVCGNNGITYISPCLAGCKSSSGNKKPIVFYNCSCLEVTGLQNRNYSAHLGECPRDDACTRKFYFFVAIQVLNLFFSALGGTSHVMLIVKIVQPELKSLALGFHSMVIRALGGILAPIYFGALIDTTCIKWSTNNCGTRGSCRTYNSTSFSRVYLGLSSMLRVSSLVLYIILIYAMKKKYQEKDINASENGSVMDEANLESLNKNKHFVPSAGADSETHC
The experiment in a line: OATP1B1 transporter substrate uptake in OATP1B1-HEK293 cells. The class given is in vitro ADME. As to conditions: for Uptake Ratio (−/+Inhibitor): OATP1B1-HEK293 cells, inhibitor Rifamycin SV; for Uptake Ratio (Transporter(−Inhibitor)/Mock(−Inhibitor)): OATP1B1-HEK293 vs Mock (normal HEK293).

In data set [2] the test system is woodchuck hepatitis virus (WHV). As to conditions: oral administration, woodchucks chronically infected with WHV; cited from earlier work.
A further data set deals with T2, OATP1B3 (Homo sapiens, UniProt Q9NPD5).
T2 construct: expressed in transfected cells; host or cells: HEK293
T2 sequence (Q9NPD5 1-702): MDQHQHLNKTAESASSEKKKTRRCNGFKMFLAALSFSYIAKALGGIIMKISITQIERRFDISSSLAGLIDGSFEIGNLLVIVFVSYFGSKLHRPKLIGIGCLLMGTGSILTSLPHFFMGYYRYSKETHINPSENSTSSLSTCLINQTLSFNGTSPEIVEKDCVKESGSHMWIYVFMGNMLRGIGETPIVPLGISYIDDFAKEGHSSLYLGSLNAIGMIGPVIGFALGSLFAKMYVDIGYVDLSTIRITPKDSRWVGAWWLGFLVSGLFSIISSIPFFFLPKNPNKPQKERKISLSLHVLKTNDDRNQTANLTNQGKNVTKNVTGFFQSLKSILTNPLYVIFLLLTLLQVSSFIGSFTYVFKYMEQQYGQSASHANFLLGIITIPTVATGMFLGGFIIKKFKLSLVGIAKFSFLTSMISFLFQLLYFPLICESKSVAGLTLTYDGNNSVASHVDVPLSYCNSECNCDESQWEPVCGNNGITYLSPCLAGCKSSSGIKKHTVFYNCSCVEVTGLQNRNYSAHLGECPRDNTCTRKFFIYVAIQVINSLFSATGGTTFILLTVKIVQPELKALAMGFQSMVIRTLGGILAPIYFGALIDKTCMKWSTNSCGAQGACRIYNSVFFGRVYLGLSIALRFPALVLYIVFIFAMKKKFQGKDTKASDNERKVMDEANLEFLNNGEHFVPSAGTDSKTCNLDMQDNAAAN
The experiment in a line: OATP1B3 transporter substrate uptake in OATP1B3-HEK293 cells. As to conditions: for Uptake Ratio (−/+Inhibitor): OATP1B3-HEK293 cells, inhibitor Rifamycin SV; for Uptake Ratio (Transporter(−Inhibitor)/Mock(−Inhibitor)): OATP1B3-HEK293 vs Mock. The class given is in vitro ADME. As for the experimental part:
Protocol for identification of compounds that are substrates of transporters OATP1B1 and OATP1B3. Transfected HTEK293 and vector control HTEK293 cells were cultured in 24-well poly-D-lysine or collagen-coated tissue culture plates ([…]) for 2 and 10 minutes respectively in transport buffer (HIBSSg, pH 7.4, pre-warmed to 37° C.). At a defined time point, the uptake experiments were stopped by removing dosing solution followed by two washes of ice-cold HIBSSg buffer. The cells were lysed for 2 minutes with […] containing an appropriate internal standard (when available). Lysis buffer were chilled to −20° C., and the plate was kept on ice during lysis. The cell lysate was transferred into a 96-well plate for sample analysis with LC-MS/MS analysis to determine concentration of test compound in cell lysate. The uptake of test compounds was normalized by total cell protein using the BCA Protein Assay Kit following the manufacturer's protocol. The inhibitor Rifamycin SV was used to block OATP1B1 and OATP1B3 transporter activity in order to determine uptake ratios.

The next data set concerns HBV. The conditions noted are these: oral treatment, HBV infected uPA-SCID mice harboring human hepatocytes; cited from earlier work.
A short description of data set [3]: Cellular toxicity (CellTiter-Glo) in HepG2.2.15 cells. The class given is cell-based. The conditions noted are these: human. On the procedure: (§1) Cellular assays method 1: Cellular assays: The HBV producing cell line HepG2.2.15 was cultured in DMEM/F12 containing 10% fetal bovine serum (FBS), 100 U/ml penicillin and 100 μg/ml streptomycin (Invitrogen). Compounds of the disclosure in DMSO was added into the culture medium when cell reached 100% confluence. The final concentration of DMSO was adjusted to 0.5%. Culture medium was replaced in two days and the cell was cultured for additional two days in the presence of compound. HBsAg inhibition in culture medium was then detected with AlphaLisa assay using anti-HBsAg antibodies of 10-H05H and 60C-CR2100RB from Fitzgerald Internantional. To examine the change of nucleic acid, total RNA was extracted with Trizol reagents and resolved in glyoxal agarose gel. HBV RNA blotted onto nitrocellulose membrane was measured with P32 labeled ribo-probe. Reduction and shortening of viral RNA indicates on target effect of the tested compound. […] HepG2.2.15 cells were first seeded in 96-well plate (Corning, Cat #: CLS3595) at density of 10,000 cells/well in 100 ul DMEM/F12 medium containing 10% FBS. When cells reached 100% confluence, treatment with compounds of the disclosure was initiated, and cells were cultured in the way as described for HBsAg inhibition study. Four days post drug treatment, 100 ul of CellTiter-Glo reagents (Promega, Cat #G7570) were added into each well and the mixture was incubated at 23° C. for 12 minutes, followed by the reading of luminescent signal in Tecan's Infinite 200 PRO. Compound IC50 on HBsAg and CC50 on cell viability were calculated using Graphpad prism. The IC50 and CC50 are defined as the compound concentration (or conditioned media log dilution) at which HBsAg secretion and cytotoxicity, respectively, are reduced by 50% compared to the no drug control.
(§2) Cellular assays method 2: HepG2.2.15 cells were seeded in duplicate into white, 96-well plates at 1.5×10^4 cells/well. The cells were treated with a 3-fold serial dilution series of the compounds in DMSO. The final DMSO concentration in all wells was 1%, and DMSO was used as no drug control. The HBsAg chemiluminescence immunoassay (CLIA) kit (Autobio Diagnostics Co., Zhengzhou, China) was used to measure the levels of secreted HBV antigens semi-quantitatively. For the detection, 50 μL/well culture supernatant was used and the procedure conducted as directed by manufacturer's instructions. The cytotoxicity was measured using CellTiter-Glo (Promega, Madison, WI, USA, catalogue no. G7571). Dose-response curves were generated and the IC50 and CC50 values were calculated using Graphpad prism. The IC50 and CC50 are defined as the compound concentration (or conditioned media log dilution) at which HBsAg secrection and cytotoxicity, respectively, are reduced by 50% compared to the no drug control.

Data set [4] has as its system HBsAg secretion, HBV producing cell line HepG2.2.15. In words: Cellular assay: HBsAg inhibition in HBV producing cell line HepG2.2.15. The class given is cell-based. As to conditions: Hepatitis B virus. As for the experimental part: as §1, §2

Consider `COCCCOc1cc2c(cc1OC)-c1cc(=O)c(C(=O)O)cn1[C@H](C(C)C)C2` [DHQ-1], for which the Toxicity observed result in data set [1] was “acute neurotoxicity liabilities”. In addition, the results for the “Uptake Ratio (−/+Inhibitor)” value on OATP1B1 (test concentration 1 μM) and at OATP1B3 (test concentration 1 μM) were 0.38 and 0.42, respectively. The figures for the “Uptake Ratio (Transporter(−Inhibitor)/Mock(−Inhibitor))” value on OATP1B1 (test concentration 1 μM) and on OATP1B3 (test concentration 1 μM) were 0.71 and 0.56, respectively. In data set [2], the “Reduction of WHV and surface protein in the blood” value is recorded as “multi-log reductions”. Besides, the “Reduction of HBsAg in the circulation” value with HBV was 1 log.

For the molecule `C[C@]12CC[C@@H]3c4ccc(O)cc4CC[C@H]3[C@@H]1CC[C@@H]2O[C@@H]1O[C@H](C(=O)O)[C@@H](O)[C@H](O)[C@H]1O` [Estradiol 17-β Glucuronide], at OATP1B1 (test concentration 10 μM), the “Uptake Ratio (−/+Inhibitor)” value amounted to 81.84 and the “Uptake Ratio (Transporter(−Inhibitor)/Mock(−Inhibitor))” value was 48.70. For the same molecule, at OATP1B3 (test concentration 10 μM), the “Uptake Ratio (−/+Inhibitor)” value was found to be 86.15 and the “Uptake Ratio (Transporter(−Inhibitor)/Mock(−Inhibitor))” value is reported as 98.86.

In turn, `COc1cc2c(cc1OCC(=O)O)C[C@@H](C(C)C)n1cc(C(=O)O)c(=O)cc1-2` [Example 1, (S)-9-(carboxymethoxy)-6-isopropyl-10-methoxy-2-oxo-6,7-dihydro-2H-pyrido [2,1-a]isoquinoline-3-carboxylic acid] had a CC50 in data set [3] greater than 10000 nM. Moreover, the midpoint of the response in data set [4], the EC50, lay at 10000 nM.

With `COc1cc2c(cc1OCCCC(=O)O)C[C@@H](C(C)C)n1cc(C(=O)O)c(=O)cc1-2` [Example 2, (S)-9-(3-carboxypropoxy)-6-isopropyl-10-methoxy-2-oxo-6,7-dihydro-2H-pyrido [2,1-a]isoquinoline-3-carboxylic acid], the CC50 in data set [3] was greater than 10000 nM. Further, the EC50 in data set [4] stood at 1010 nM.

Molecule `COc1cc2c(cc1OCCCCC(=O)O)C[C@@H](C(C)C)n1cc(C(=O)O)c(=O)cc1-2` [Example 3, (S)-9-(4-carboxybutoxy)-6-isopropyl-10-methoxy-2-oxo-6,7-dihydro-2H-pyrido[2,1-a]isoquinoline-3-carboxylic acid] came in with a CC50 in data set [3] greater than 10000 nM. The molecule also displayed an EC50 in data set [4] of 380 nM.

`COc1cc2c(cc1OCCCCCC(=O)O)C[C@@H](C(C)C)n1cc(C(=O)O)c(=O)cc1-2` [Example 4, (S)-9-((5-carboxypentyl)oxy)-6-isopropyl-10-methoxy-2-oxo-6,7-dihydro-2H-pyrido[2,1-a]isoquinoline-3-carboxylic acid] yielded a CC50 in data set [3] greater than 10000 nM. Besides, it took 87 nM to reach a half-maximal effect in data set [4] (EC50).

As for `COc1cc2c(cc1OCCCOCC(=O)O)C[C@@H](C(C)C)n1cc(C(=O)O)c(=O)cc1-2` [Example 5, (S)-9-(3-(carboxymethoxy)propoxy)-6-isopropyl-10-methoxy-2-oxo-6,7-dihydro-2H-pyrido[2,1-a]isoquinoline-3-carboxylic acid], the CC50 in data set [3] was greater than 10000 nM. The molecule further returned an EC50 in data set [4] of 2780 nM.

In the case of `COc1cc2c(cc1OCCCCCCCC(=O)O)C[C@@H](C(C)C)n1cc(C(=O)O)c(=O)cc1-2` [Example 7, (S)-9-((7-carboxyheptyl)oxy)-6-isopropyl-10-methoxy-2-oxo-6,7-dihydro-2H-pyrido[2,1-a]isoquinoline-3-carboxylic acid], in data set [3], the CC50 was greater than 10000 nM. In data set [4], this molecule showed an EC50 of 7.6 nM.

In turn, `COc1cc2c(cc1OCCCCCCCCC(=O)O)C[C@@H](C(C)C)n1cc(C(=O)O)c(=O)cc1-2` [Example 8, (S)-9-((8-carboxyoctyl)oxy)-6-isopropyl-10-methoxy-2-oxo-6,7-dihydro-2H-pyrido[2,1-a]isoquinoline-3-carboxylic acid] gave a CC50 in data set [3] greater than 10000 nM. For the same molecule, in data set [4], the EC50 stood at 4.6 nM.

The CC50 is the concentration giving 50% cytotoxicity. High values mean lower toxicity to the cells, low ones greater toxicity to the cells. In general, EC50 refers to the concentration at which the effect is half-maximal.
